Assay results reported in patent publication US8431536B2, “Target for breast cancer therapy and/or diagnosis” (The University of Queensland, priority 2007, dated 2013).

System: MCF-7 breast cancer cells
Test: MTS proliferation/viability assay in MCF-7 breast cancer cells
Format: cell-based
Conditions: 50 μM, treated on plating in 10% foetal bovine serum, MTS 72 hrs after plating, p<0.05 vs methanol control (FIG. 8)
Method: FIG. 6 The effect of siRNA to CRACM1 (96 hrs) on the viability of MCF-7 cells, as measured by an MTS assay for cellular proliferation. Normalized MTS absorbance (proliferation/viability) of the mean of 3 independent experiments in MCF-7 breast cancer cells (±SEM). For each experiment absorbance was assessed in quadruplicate. Experiment was performed in 1% foetal bovine serum (p<0.05).
FIG. 8 MTS assay of MCF-7 cells treated with 50 μM 2-APB. * p<0.05 compared with respective methanol control. Error bars=SD. Cells were treated with 2-APB on plating in 10% foetal bovine serum. MTS assay was performed 72 hrs after plating.

NCCOB(c1ccccc1)c1ccccc1 [2-APB, 2-aminoethoxydiphenyl borate] was tested, and the “proliferation/viability of MCF-7 cells (MTS assay)” value was “inhibits the proliferation/viability of MCF-7 breast”.
